Patent US20230203126A1, “A COMPOSITION COMPRISING S-ARRESTIN PEPTIDES” (WORG PHARMACEUTICALS (HANGZHOU) CO., LTD., priority 2019, published 2023)
“And” between values parts separate entries of the source, which are not always exact repeats. Equal entries are not always repeated. No end group written: not given here.

Tests used:
[1] = target: HLA-DRA1*0101, DRB1*0301 (DR3) (Homo sapiens, UniProt P01903+P01911, A100K/A102G/A103R/A169T/F55Y/I96L/K41T/L162R/M171V/P40S/Q125H/Q178H/Q39Y/R42S/S66N/T106N/T262R/W38E/Y61H); assay: DR3
Chain of HLA-DRA1*0101, DRB1*0301 (DR3) (P01903 26-254 limits assumed, other chains not shown): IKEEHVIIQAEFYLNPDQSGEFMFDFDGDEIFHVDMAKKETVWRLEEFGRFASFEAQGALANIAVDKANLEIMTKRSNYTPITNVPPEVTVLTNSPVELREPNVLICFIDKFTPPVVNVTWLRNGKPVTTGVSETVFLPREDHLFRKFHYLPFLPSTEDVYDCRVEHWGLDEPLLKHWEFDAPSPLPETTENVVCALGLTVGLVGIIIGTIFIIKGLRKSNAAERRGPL
Description: (§1) Table printed on a drawing sheet, Figure 9
(§2) The patent's description of the figure: FIG. 9: Diverse patterns of in vitro peptide-MHC II binding for peptides 9K1, 17JK and 15N3K. Binding of peptides 9K1, 17JK and 15N3K to recombinant HLA-DRA1*0101, DRB1*0101 (DR1), DRB1*1501 (DR2), DRB1*0301 (DR3), DRB1*0401 (DR4), DRB1*1101 (DR11), DRB1*0405 (DR4*05) and DRB1*0901 (DR9) was assessed in vitro. IC50 values (µM) are presented and colour-coded per HLA-DR molecule. Low values (green) indicate strong binding, high values (red) indicate low(er) binding.
(§3) FIG. 9 depicts IC50 (µM) values of peptides 9K1K, 17JK and 15N3K binding to the indicated HLA-DR molecules and competing with a known competitor peptide. Values should be compared only within each HLA-DR molecule. Low IC50 values (green) indicate the strongest binder per HLA-DR molecule. Highest values per HLA-DR molecule (red) are indicative of the lowest binder for that HLA-DR molecule. Intermediate values are indicated in orange. […]
(§4) First copying reader's note: The sheet prints no unit; per the patent description the values are IC50 (µM) for peptide binding to the named HLA-DR molecules, with cell shading coding relative binding strength per HLA-DR molecule.
Where the first naming reader finds the target: description_of_the_figure: recombinant HLA-DRA1*0101, DRB1*0101 (DR1), DRB1*1501 (DR2), DRB1*0301 (DR3)

[2] = test system: S-Ag-induced cell activation (IFNy production of LN cells and splenocytes); assay: Ex vivo tolerization experiment (DR3tg mice); assay type: in vivo; settings: for reduction of S-Ag-induced cell activation (IFNy) in spleens: dose escalation to 15 nmol per peptide s.c., cocktail vs single peptide, vs control group, two independent experiments (FIG. 7); for reduction of S-Ag-induced cell activation (IFNy) in lymph nodes / reduction of S-Ag-induced cell activation (IFNy) in spleen: single peptide escalating dose s.c., vs PBS; for reduction of S-Ag-induced cell activation (IFNy) in lymph nodes: 10 days after immunization (FIG. 5A, 6A); for reduction of S-Ag-induced cell activation (IFNy) in spleen: 10 days after immunization (FIG. 5B, 6B)
Description: (§5) FIG. 5: 17JK alone induces tolerance towards S-Ag protein in DR3tg mice. Mice were injected subcutaneously in the flank with 0,1 µg/ml, 1 µg/ml and 10 µg/ml 17JK on days -15, -13 and -11, followed by 3 injections of 100 µg/ml on days -8, -6 and -4 (escalating dose regime). On day 0, mice were immunized subcutaneously at the base of the tail with antigen/CFA. Mice were sacrificed 10 days after immunization to measure activation of LN cells and splenocytes upon S-Ag restimulation. IFNy concentration was measured in the culture supernatant as an indication of cell activation. Data represent mean ± SEM of the concentration of IFNy for the PBS-treated mice (black lines) and 17JK-treated mice (grey lines). Two-way ANOVA was used to measure overall treatment effects on T cell activation. Dunnett’s multiple comparisons test was used and significant differences are indicated in the graphs (** p<0.01; *** p<0.001). The % inhibition of IFNy production as compared to the control group is indicated in the graphs. (A) Tolerization against S-Ag in LN. IFNy production expressed as IFNy concentration (pg/ml). (B) Tolerization against S-Ag in spleen. IFNy production expressed as IFN-y concentration (pg/ml). LN, lymph nodes. Data representative of 3 independent experiments.
as §5, with “FIG. 6: 15N3K alone induces” for “FIG. 5: 17JK alone induces”, “10 µg/ml 15N3K on days” for “10 µg/ml 17JK on days”, “lines) and 15N3K-treated mice (grey” for “lines) and 17JK-treated mice (grey”, “the graphs (* p<0.05; **** p<0.0001). The %” for “the graphs (** p<0.01; *** p<0.001). The %”, “Tolerization against SAg in spleen.” for “Tolerization against S-Ag in spleen.”
FIG. 7: Treatment with peptide cocktail ATX975 reduces S-Ag-induced immune cell activation in DR3tg mice more efficiently than treatment with 17JK or 15N3K alone. Mice were injected subcutaneously in the flank with 0.015 nmol, 0.15 nmol and 1.5 nmol of peptide on days -15, -13 and -11 respectively, followed by 3 injections of 15 nmol peptide on days -8, -6 and -4 (dose escalation schedule). For treatment with the cocktail (ATX975) containing 3 peptides, these doses were given per peptide (reaching a total top dose of 45 nmol peptide). On day 0, mice were immunized subcutaneously at the base of the tail with antigen/CFA. Mice were sacrificed 10 days after immunization to measure activation of splenocytes upon SAg restimulation. Data represent mean ± SEM of the IFNy concentration for the control-treated mice (black lines) and peptide-treated mice (grey lines). Two-way ANOVA was used to measure overall treatment effects on T cell activation. Dunnett’s multiple comparisons test was used and significant differences are indicated in the graphs (* p<0.05; ** p<0.01; *** p<0.001; **** p<0.0001 as compared to the control group; ^# p<0.05, ^#### p<0.0001 as compared to the ATX975 group). The % inhibition of IFNy production as compared to the control group is indicated in the graphs. (A) Tolerization against S-Ag […]. IFN-y production expressed as IFN-y concentration (pg/ml). (B) Tolerization against S-Ag in spleen. […]

[3] = target: HLA-DRA1*0101, DRB1*1101 (DR11) (Homo sapiens, UniProt P01903+P01911, A100R/A169T/A87E/I96F/K41T/L162R/M171V/P40S/Q125H/Q178H/Q39Y/Q99D/R42S/S66Y/T262R/V115G/W38E); assay: DR11
Chain of HLA-DRA1*0101, DRB1*1101 (DR11) (P01903 26-254 limits assumed, other chains not shown): as above
Description: as §1, §2, §3, §4
Where the first naming reader finds the target: description_of_the_figure: recombinant HLA-DRA1*0101, DRB1*0101 (DR1), DRB1*1501 (DR2), DRB1*0301 (DR3), DRB1*0401 (DR4), DRB1*1101 (DR11)

Substance: KKKVIFKKISRDKSVTIYLGKKK-NH2 [15N3K]
- IC50 [1]: 14.7 µM
- reduction of S-Ag-induced cell activation (IFNy) in spleens [2]: 74%
- reduction of S-Ag-induced cell activation (IFNy) in lymph nodes [2]: 61%
- reduction of S-Ag-induced cell activation (IFNy) in spleen [2]: 72%

Substance: KKKLTFRRDLYFSRVQVYKKK-NH2 [17JK]
- IC50 [3]: 0.88 µM
- reduction of S-Ag-induced cell activation (IFNy) in spleens [2]: 80% and 52%
- reduction of S-Ag-induced cell activation (IFNy) in lymph nodes [2]: 78%
- reduction of S-Ag-induced cell activation (IFNy) in spleen [2]: 84%
